Measured values as given in patent publication US20260317307A1, “Process for the Preparation of Deucravacitinib, and Crystalline Forms Thereof” (Alivus Life Sciences Limited, priority 2023, published 2026).

Columns and labels:
[1] = Stability of crystalline form A (polymorphic form identification by XRPD on storage); assay type: physicochemical; conditions: 1 Month, complies with Form A
Source text: Stability data of crystalline form A of deucravacitinib prepared by the present invention: […]

[2] = Particle size of crystalline form A (Example 38); assay type: physicochemical

With `[2H]C([2H])([2H])NC(=O)c1nnc(NC(=O)C2CC2)cc1Nc1cccc(-c2ncn(C)n2)c1OC` [crystalline form A of deucravacitinib, 6-(cyclopropanecarboxamido)-4-((2-methoxy-3-(1-methyl-1H-1,2,4-triazol-3-yl)phenyl)amino)-N-(trideuteriomethyl)pyridazine-3-carboxamide] the “Polymorphic Form Identification: XRPD pattern should exhibit characteristic peaks of Form A at 10.1°, 12.4°, 18.9°, 19.3° and 20.4° ± 0.2° 2 theta” value (from here on “Polymorphic Form Identification”) ([1]; storage 25 °C/60% RH) was “Complies”, the “Polymorphic Form Identification” value ([1]; storage 40 °C/75% RH) was “Complies” and the “Polymorphic Form Identification” value ([1]; storage 60 °C/90% RH) was “Complies”. For the same molecule, the “Particle Size D10” value ([2]; After jet milling) was 1.6 μm, the “Particle Size D50” value ([2]; After jet milling) was 3.0 μm and the “Particle Size D90” value ([2]; After jet milling) was 5.6 μm. The “Particle Size D10” value ([2]; before jet milling) was 9.4 μm, the “Particle Size D50” value ([2]; before jet milling) was 21.64 μm and the “Particle Size D90” value ([2]; before jet milling) was 39.49 μm.
